The data set can be described thus: pKa of monomers by neutralization titration. To be noted: tetrahydrofuran/water=6:4. The format is physicochemical. On the procedure:
The pKa value of each monomer was calculated in accordance with a neutralization titration method in a system of tetrahydrofuran/water=6:4 by means of an automatic titrator COM-2500 (trade name) manufactured by Hiranuma Sangyo Co., Ltd.

Consider 2 compounds from patent US20090246481A1, “DISPERSION OF WATER-INSOLUBLE COLORANT, METHOD OF PRODUCING SUBSTANCE CONTAINING WATER-INSOLUBLE COLORANT, FINE PARTICLES OF WATER-INSOLUBLE COLORANT, DISPERSING AGENT FOR WATER-INSOLUBLE COLORANT, AND RECORDING LIQUID, INK SET, PRINTED ARTICLE, METHOD OF FORMING IMAGE AND IMAGE FORMING APPARATUS …” (FUJIFILM Corporation, priority 2008, published 2009).

As a reminder, the pKa is the pH at which an ionisable group is half protonated. On to `C=C(C)C(=O)NS(C)(=O)=O` [Monomer 1], for which the pKa was 3.96.

On to `C=C(C)C(=O)O` [Methacrylic acid], for which the pKa was determined as 3.98.
